Assays:
Type in all cases: in vivo
Madison lung carcinoma = experiment: Test 8: Madison lung carcinoma in mice; conditions: for Toxicity (number of animals which exhibited signs of toxicity): group of 10 mice; for Inhibition (percent inhibition of tumor growth): tumors measured day 11
Source text: (§1) Representative compounds of the invention have been tested using murine tumors in female mice to determine their antineoplastic efficacy. Several different tumor systems have been used in these tests, and the compounds have been administered on a number of different dosage schedules. In general, all the tests were started by inoculating female mice with the tumor, subcutaneously. After some number of days delay, intraperitoneal administration of the test compound was begun. Each treatment group consisted of 10 mice, and untreated control groups were included in all experiments. At the completion of the treatment period, the tumors of the control and the treated mice were measured and the mass of them calculated from the measurements. The data are reported here as percent inhibition of tumor growth, based on the tumors of the untreated control mice.
The compound of Example 2 was tested against Madison lung carcinoma, giving doses on days 1, 5 and 9 after inoculation and measuring the tumors on day 11.

colon carcinoma 26 = experiment: Test 5: colon carcinoma 26 in mice; conditions: for Toxicity (number of animals which exhibited signs of toxicity): group of 10 mice; for Inhibition (percent inhibition of tumor growth): tumors measured day 13
Source text: as §1
The compound of Example 2 was tested against colon carcinoma 26, giving doses on days 3, 8 and 11 after inoculation, and measuring the tumors on day 13.

6C3HED lymphosarcoma = experiment: Test 4: 6C3HED lymphosarcoma in mice; conditions: for Toxicity (number of animals which exhibited signs of toxicity): group of 10 mice; for Inhibition (percent inhibition of tumor growth): tumors measured day 10
Source text: as §1
The compound of Example 2 was tested against 6C3HED lymphosarcoma, giving a dose on days 1, 5 and 9 after inoculation, and measuring the tumors on day 10.

M-5 ovarian carcinoma [1] = experiment: Test 2: M-5 ovarian carcinoma in mice, three doses; conditions: for Toxicity (number of animals which exhibited signs of toxicity): group of 10 mice; for Inhibition (percent inhibition of tumor growth): tumors measured day 15
Source text: as §1
The compound of Example 2 was tested against M-5 ovarian carcinoma. Three doses were administered on days 5, 10 and 13 after inoculation, and the tumors were measured on day 15.

Lewis lung carcinoma = experiment: Test 9: Lewis lung carcinoma in mice; conditions: for Toxicity (number of animals which exhibited signs of toxicity): group of 10 mice; for Inhibition (percent inhibition of tumor growth): tumors measured day 11
Source text: as §1
The compound of Example 2 was tested against Lewis lung carcinoma, giving doses on days 1, 5 and 9 after inoculation and measuring the tumors on day 11.

M-5 ovarian carcinoma [2] = experiment: Test 1: M-5 ovarian carcinoma in mice, single dose; conditions: single dose two days after inoculation; for Toxicity (number of animals which exhibited signs of toxicity): group of 10 mice; for Inhibition (percent inhibition of tumor growth): tumors measured 13 days after inoculation
Source text: as §1
The tumor in this test was M-5 ovarian carcinoma; the compounds were administered as a single dose, two days after inoculation, and the tumors were measured 13 days after inoculation.

M-5 ovarian carcinoma [3] = experiment: Test 3: M-5 ovarian carcinoma in mice, daily dose; conditions: for Toxicity (number of animals which exhibited signs of toxicity): group of 10 mice; for Inhibition (percent inhibition of tumor growth): tumors measured day 15
Source text: as §1
The compound of Example 2 was tested against M-5 ovarian carcinoma, giving a daily dose from day 5 to day 14 after inoculation. The tumors were measured on day 15.

[4] = system: X-5563 plasma cell myeloma; experiment: Test 6: X-5563 plasma cell myeloma in mice; conditions: for Toxicity (number of animals which exhibited signs of toxicity): group of 10 mice; for Inhibition (percent inhibition of tumor growth): tumors measured day 11
Source text: as §1
The compound of Example 2 was tested against X-5563 plasma cell myeloma, giving doses on days 1, 5 and 9 after inoculation and measuring the tumors on day 11.

[5] = system: C3H mammary adenocarcinoma; experiment: Test 7: C3H mammary adenocarcinoma in mice; conditions: for Toxicity (number of animals which exhibited signs of toxicity): group of 10 mice; for Inhibition (percent inhibition of tumor growth): tumors measured day 11
Source text: as §1
The compound of Example 2 was tested against C3H mammary adenocarcinoma, giving does on days 1, 5 and 9 after inoculation and measuring the tumors on day 11.

[6] = 1.8 mg/kg intraperitoneal on days 1, 5 and 9 after inoculation
[7] = 3.8 mg/kg intraperitoneal on days 1, 5 and 9 after inoculation
[8] = 7.5 mg/kg intraperitoneal on days 1, 5 and 9 after inoculation
[9] = 15 mg/kg intraperitoneal on days 1, 5 and 9 after inoculation
[10] = 30 mg/kg intraperitoneal on days 1, 5 and 9 after inoculation
[11] = 1.8 mg/kg intraperitoneal on days 3, 8 and 11 after inoculation
[12] = 3.8 mg/kg intraperitoneal on days 3, 8 and 11 after inoculation
[13] = 7.5 mg/kg intraperitoneal on days 3, 8 and 11 after inoculation
[14] = 15 mg/kg intraperitoneal on days 3, 8 and 11 after inoculation
[15] = 30 mg/kg intraperitoneal on days 3, 8 and 11 after inoculation
[16] = 1.8 mg/kg intraperitoneal on days 5, 10 and 13 after inoculation
[17] = 3.8 mg/kg intraperitoneal on days 5, 10 and 13 after inoculation
[18] = 7.5 mg/kg intraperitoneal on days 5, 10 and 13 after inoculation
[19] = 15 mg/kg intraperitoneal on days 5, 10 and 13 after inoculation
[20] = 30 mg/kg intraperitoneal on days 5, 10 and 13 after inoculation
[21] = 0.6 mg/kg intraperitoneal daily from day 5 to day 14 after inoculation
[22] = 1.2 mg/kg intraperitoneal daily from day 5 to day 14 after inoculation
[23] = 2.5 mg/kg intraperitoneal daily from day 5 to day 14 after inoculation
[24] = 5 mg/kg intraperitoneal daily from day 5 to day 14 after inoculation

CCCCCCCCCCCCCCCC(=O)OC[C@H](COP(=O)(O)OP(=O)(O)OC[C@H]1O[C@@H](n2ccc(N)nc2=O)C(F)(F)[C@@H]1O)OC(=O)CCCCCCCCCCCCCCC [Example 2]
Toxicity (number of animals which exhibited signs of toxicity) (Madison lung carcinoma; [6]): 0/10
Inhibition (percent inhibition of tumor growth) (Madison lung carcinoma; [6]): 12%
Toxicity (number of animals which exhibited signs of toxicity) (Madison lung carcinoma; [7]): 0/10
Inhibition (percent inhibition of tumor growth) (Madison lung carcinoma; [7]): 18%
Toxicity (number of animals which exhibited signs of toxicity) (Madison lung carcinoma; [8]): 0/10
Inhibition (percent inhibition of tumor growth) (Madison lung carcinoma; [8]): 33%
Toxicity (number of animals which exhibited signs of toxicity) (Madison lung carcinoma; [9]): 0/10
Inhibition (percent inhibition of tumor growth) (Madison lung carcinoma; [9]): 68%
Toxicity (number of animals which exhibited signs of toxicity) (Madison lung carcinoma; [10]): 4/10
Inhibition (percent inhibition of tumor growth) (Madison lung carcinoma; [10]): 76%
Toxicity (number of animals which exhibited signs of toxicity) (colon carcinoma 26; [11]): 0/10
Inhibition (percent inhibition of tumor growth) (colon carcinoma 26; [11]): 0%
Toxicity (number of animals which exhibited signs of toxicity) (colon carcinoma 26; [12]): 0/10
Inhibition (percent inhibition of tumor growth) (colon carcinoma 26; [12]): 21%
Toxicity (number of animals which exhibited signs of toxicity) (colon carcinoma 26; [13]): 0/10
Inhibition (percent inhibition of tumor growth) (colon carcinoma 26; [13]): 28%
Toxicity (number of animals which exhibited signs of toxicity) (colon carcinoma 26; [14]): 0/10
Inhibition (percent inhibition of tumor growth) (colon carcinoma 26; [14]): 66%
Toxicity (number of animals which exhibited signs of toxicity) (colon carcinoma 26; [15]): 8/10
Inhibition (percent inhibition of tumor growth) (colon carcinoma 26; [15]): 89%
Toxicity (number of animals which exhibited signs of toxicity) (6C3HED lymphosarcoma; [6]): 0/10
Inhibition (percent inhibition of tumor growth) (6C3HED lymphosarcoma; [6]): 21%
Toxicity (number of animals which exhibited signs of toxicity) (6C3HED lymphosarcoma; [7]): 0/10
Inhibition (percent inhibition of tumor growth) (6C3HED lymphosarcoma; [7]): 32%
Toxicity (number of animals which exhibited signs of toxicity) (6C3HED lymphosarcoma; [8]): 0/10
Inhibition (percent inhibition of tumor growth) (6C3HED lymphosarcoma; [8]): 47%
Toxicity (number of animals which exhibited signs of toxicity) (6C3HED lymphosarcoma; [9]): 0/10
Inhibition (percent inhibition of tumor growth) (6C3HED lymphosarcoma; [9]): 60%
Toxicity (number of animals which exhibited signs of toxicity) (6C3HED lymphosarcoma; [10]): 7/10
Inhibition (percent inhibition of tumor growth) (6C3HED lymphosarcoma; [10]): 98%
Toxicity (number of animals which exhibited signs of toxicity) (M-5 ovarian carcinoma [1]; [16]): 0/10
Inhibition (percent inhibition of tumor growth) (M-5 ovarian carcinoma [1]; [16]): 22%
Toxicity (number of animals which exhibited signs of toxicity) (M-5 ovarian carcinoma [1]; [17]): 0/10
Inhibition (percent inhibition of tumor growth) (M-5 ovarian carcinoma [1]; [17]): 55%
Toxicity (number of animals which exhibited signs of toxicity) (M-5 ovarian carcinoma [1]; [18]): 0/10
Inhibition (percent inhibition of tumor growth) (M-5 ovarian carcinoma [1]; [18]): 61%
Toxicity (number of animals which exhibited signs of toxicity) (M-5 ovarian carcinoma [1]; [19]): 0/10
Inhibition (percent inhibition of tumor growth) (M-5 ovarian carcinoma [1]; [19]): 92%
Toxicity (number of animals which exhibited signs of toxicity) (M-5 ovarian carcinoma [1]; [20]): 2/10
Inhibition (percent inhibition of tumor growth) (M-5 ovarian carcinoma [1]; [20]): 99%
Toxicity (number of animals which exhibited signs of toxicity) (Lewis lung carcinoma; [6]): 0/10
Inhibition (percent inhibition of tumor growth) (Lewis lung carcinoma; [6]): 6%
Toxicity (number of animals which exhibited signs of toxicity) (Lewis lung carcinoma; [7]): 0/10
Inhibition (percent inhibition of tumor growth) (Lewis lung carcinoma; [7]): 0%
Toxicity (number of animals which exhibited signs of toxicity) (Lewis lung carcinoma; [8]): 0/10
Inhibition (percent inhibition of tumor growth) (Lewis lung carcinoma; [8]): 0%
Toxicity (number of animals which exhibited signs of toxicity) (Lewis lung carcinoma; [9]): 0/10
Inhibition (percent inhibition of tumor growth) (Lewis lung carcinoma; [9]): 0%
Toxicity (number of animals which exhibited signs of toxicity) (Lewis lung carcinoma; [10]): 4/10
Inhibition (percent inhibition of tumor growth) (Lewis lung carcinoma; [10]): 41%
Toxicity (number of animals which exhibited signs of toxicity) (M-5 ovarian carcinoma [2]; 25 mg/kg intraperitoneal): 0/10
Inhibition (percent inhibition of tumor growth) (M-5 ovarian carcinoma [2]; 25 mg/kg intraperitoneal): 72%
Toxicity (number of animals which exhibited signs of toxicity) (M-5 ovarian carcinoma [2]; 50 mg/kg intraperitoneal): 4/10
Inhibition (percent inhibition of tumor growth) (M-5 ovarian carcinoma [2]; 50 mg/kg intraperitoneal): 87%
Toxicity (number of animals which exhibited signs of toxicity) (M-5 ovarian carcinoma [3]; [21]): 0/10
Inhibition (percent inhibition of tumor growth) (M-5 ovarian carcinoma [3]; [21]): 42%
Toxicity (number of animals which exhibited signs of toxicity) (M-5 ovarian carcinoma [3]; [22]): 0/10
Inhibition (percent inhibition of tumor growth) (M-5 ovarian carcinoma [3]; [22]): 58%
Toxicity (number of animals which exhibited signs of toxicity) (M-5 ovarian carcinoma [3]; [23]): 0/10
Inhibition (percent inhibition of tumor growth) (M-5 ovarian carcinoma [3]; [23]): 69%
Toxicity (number of animals which exhibited signs of toxicity) (M-5 ovarian carcinoma [3]; [24]): 0/10
Inhibition (percent inhibition of tumor growth) (M-5 ovarian carcinoma [3]; [24]): 100%
Toxicity (number of animals which exhibited signs of toxicity) (M-5 ovarian carcinoma [3]; 10 mg/kg intraperitoneal daily from day 5 to day 14 after inoculation): 10/10
Toxicity (number of animals which exhibited signs of toxicity) [4, 6]: 0/10
Inhibition (percent inhibition of tumor growth) [4, 6]: 0%
Toxicity (number of animals which exhibited signs of toxicity) [4, 7]: 0/10
Inhibition (percent inhibition of tumor growth) [4, 7]: 2%
Toxicity (number of animals which exhibited signs of toxicity) [4, 8]: 0/10
Inhibition (percent inhibition of tumor growth) [4, 8]: 68%
Toxicity (number of animals which exhibited signs of toxicity) [4, 9]: 1/10
Inhibition (percent inhibition of tumor growth) [4, 9]: 84%
Toxicity (number of animals which exhibited signs of toxicity) [4, 10]: 9/10
Inhibition (percent inhibition of tumor growth) [4, 10]: 100%
Toxicity (number of animals which exhibited signs of toxicity) [5, 6]: 0/10
Inhibition (percent inhibition of tumor growth) [5, 6]: 0%
Toxicity (number of animals which exhibited signs of toxicity) [5, 7]: 0/10
Inhibition (percent inhibition of tumor growth) [5, 7]: 0%
Toxicity (number of animals which exhibited signs of toxicity) [5, 8]: 0/10
Inhibition (percent inhibition of tumor growth) [5, 8]: 22%
Toxicity (number of animals which exhibited signs of toxicity) [5, 9]: 0/10
Inhibition (percent inhibition of tumor growth) [5, 9]: 60%
Toxicity (number of animals which exhibited signs of toxicity) [5, 10]: 6/10
Inhibition (percent inhibition of tumor growth) [5, 10]: 100%

CCCCCCCCCCCCCCCCCCC(COP(=O)(O)OP(=O)(O)OC[C@H]1O[C@@H](n2ccc(N)nc2=O)C(F)(F)[C@@H]1O)OCC (stereo partly drawn) [Example 3, 2′-Deoxy-2′,2′-difluorocytidine, 5′-(dihydrogen diphosphate), P′-(2-ethoxyeicosyl) ester]
Toxicity (number of animals which exhibited signs of toxicity) (M-5 ovarian carcinoma [2]; 50 mg/kg intraperitoneal): 0/10
Inhibition (percent inhibition of tumor growth) (M-5 ovarian carcinoma [2]; 50 mg/kg intraperitoneal): 53%
Toxicity (number of animals which exhibited signs of toxicity) (M-5 ovarian carcinoma [2]; 100 mg/kg intraperitoneal): 0/10
Inhibition (percent inhibition of tumor growth) (M-5 ovarian carcinoma [2]; 100 mg/kg intraperitoneal): 64%

From patent EP0376518B1, “Phospholipid nucleosides” (ELI LILLY AND COMPANY, priority 1988, dated 1990)
